Laboratory results taken from patent US20150111815A1, “NOVEL CYCLOSPORIN DERIVATIVES FOR THE TREATMENT AND PREVENTION OF VIRAL INFECTIONS” (S&T Global Inc., priority 2011, published 2015).

What was measured:
[1] = test system: HCV; conditions: reported in Hopkins, S. et al., 2010; read-out: in vitro anti-HCV activity (EC50); cited from earlier work
[2] = test system: HCV replicon in cell line ET (luc-ubi-neo/ET), Huh7 human hepatoma cells; test: HCV subgenomic replicon assay (luciferase end point); assay type: cell-based; conditions: HCV replicon-derived luciferase activity, Huh7 ET cells; read-out: Antiviral activity: IC50
Description: The anti-HCV activity of cyclosporine derivatives were evaluated in the HCV subgenomic replicon assay. The assay use the cell line ET (luc-ubi-neo/ET), which is a Huh7 human hepatoma cell line harboring an HCV replicon with a stable luciferase (Luc) reporter. HCV RNA replication was assessed by quantifying HCV replicon-derived luciferase activity. The antiviral activity of cyclosporine analogs were evaluated after drug treatment, the EC 50 and EC 90 were determined in subsequent assessments by using the luciferase end point (Krieger, N., et al., 2001, J. Virol. 75, 4614-4624; Pietschmann, T., et al., 2002, J. Virol. 76, 4008-4021; each of which is incorporated herein by reference).

Molecule | EC50 [1] | IC50 [2]
C/C=C/C[C@@H](C)[C@@H](O)[C@H]1C(=O)N[C@@H](CC)C(=O)N(C)[C@H](SCCN(C)C)C(=O)N(C)[C@@H](CC(C)(C)O)C(=O)N[C@@H](C(C)C)C(=O)N(C)[C@@H](CC(C)C)C(=O)N[C@@H](C)C(=O)N[C@H](C)C(=O)N(C)[C@@H](CC(C)C)C(=O)N(C)[C@@H](CC(C)C)C(=O)N(C)[C@@H](C(C)C)C(=O)N1C [SCY-635] | 100 nM | –
C/C=C/C[C@@H](C)[C@@H](O)[C@H]1C(=O)N[C@@H](CC)C(=O)N(C)C(CCCN(C)C)C(=O)N(C)[C@@H](CC(C)C)C(=O)N[C@@H](C(C)C)C(=O)N(C)[C@@H](CC(C)C)C(=O)N[C@@H](C)C(=O)N[C@H](C)C(=O)N(C)[C@@H](CC(C)C)C(=O)N(C)[C@@H](CC(C)C)C(=O)N(C)[C@@H](C(C)C)C(=O)N1C (stereo partly drawn) [[(R,S)-3-(N,N-Dimethylamino)propyl-Sar]-3-cyclosporin] | – | < 1500 nM
[(R)-2-(N,N-Dimethylamino)ethyl-Sar]-3-[NMeLeu]-4-cyclosporin | – | < 250 nM
[(R,S)-2-(N,N-Dimethylamino)ethyl-Sar]-3-cyclosporin | – | < 1500 nM
[(S)-2-(N,N-Diethylamino)ethyl-Sar]-3-cyclosporin | – | < 5000 nM
